System: modified version of the GPR119 receptor (94% identity to human receptor)
Assay: cAMP production assay (LANCE cAMP kit, TR-FRET) in HEK-293 cells
Format: cell-based
Conditions: for cAMP production in HEK-293 cells: HEK-293 cells stably expressing modified GPR119, test compounds 0.2 nM to 10 μM, one-hour incubation at ambient temperature; for Fold over baseline: increase in cAMP relative to basal levels, agonist activity if 1.5-fold or greater
How it was run: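 Doxycycline-induced (1 μg/mL, overnight) HEK-293 cells expressing modified GPR119 were thawed, 2000 cells/well, and exposed to compounds (0.2 nM-10 μM final, 0.5% DMSO) for 1 h at ambient temperature in HBSS/HEPES/BSA. cAMP was measured by LANCE TR-FRET against a standard curve. Agonism was defined as ≥1.5-fold over basal.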

| Compound | cAMP production in HEK-293 cells [nmol] | Fold over baseline |
| --- | --- | --- |
| CS(=O)(=O)c1cc(F)c(N[C@H]2CCCN(C3CCN(c4cnc(Cl)cn4)CC3)C2=O)cc1F [Example 57, (S)-1′-(5-chloropyrazin-2-yl)-3-(2,5-difluoro-4-(methylsulfonyl)phenylamino)-[1,4′-bipiperidin]-2-one] | 22.8 | 3.3 |
| CCc1cnc(N2CCC(N3CCC[C@H](Nc4cc(C)c(S(C)(=O)=O)cc4F)C3=O)CC2)nc1 [Example 58, (S)-1′-(5-ethylpyrimidin-2-yl)-3-(2-fluoro-5-methyl-4-(methylsulfonyl)phenylamino)-[1,4′-bipiperidin]-2-one] | 13.2 | 2.4 |
| CCc1cnc(N2CCC(N3CCC[C@H](Nc4cc(F)c(S(C)(=O)=O)cc4F)C3=O)CC2)cn1 [Example 59, (S)-3-(2,5-difluoro-4-(methylsulfonyl)phenylamino)-1′-(5-ethylpyrazin-2-yl)-[1,4′-bipiperidin]-2-one] | 22.6 | 3.4 |
| CC(C)c1cnc(N2CCC(N3CCC[C@H](Nc4cc(F)c(S(C)(=O)=O)cc4F)C3=O)CC2)cn1 [Example 60, (S)-3-(2,5-difluoro-4-(methylsulfonyl)phenylamino)-1′-(5-isopropylpyrazin-2-yl)-[1,4′-bipiperidin]-2-one] | 27.4 | 4.4 |
| Cc1ccccc1-c1cnc(N2CCC(N3CCC[C@H](Nc4cc(F)c(S(C)(=O)=O)cc4F)C3=O)CC2)cn1 [Example 61, (S)-3-(2,5-difluoro-4-(methylsulfonyl)phenylamino)-1′-(5-o-tolylpyrazin-2-yl)-[1,4′-bipiperidin]-2-one] | 19.6 | 3.1 |
| CCc1cnc(N2CCC(N3CCCC(Nc4ccc(S(C)(=O)=O)cc4F)C3=O)CC2)nc1 (centres unmarked) [Example 62, 1′-(5-ethylpyrimidin-2-yl)-3-(2-fluoro-4-(methylsulfonyl)phenylamino)-[1,4′-bipiperidin]-2-one] | 9.8 | 2.9 |
| CCc1cnc(N2CCC(N3CCCC(Nc4ccc(S(C)(=O)=O)c(F)c4)C3=O)CC2)nc1 (centres unmarked) [Example 63, 1′-(5-ethylpyrimidin-2-yl)-3-(3-fluoro-4-(methylsulfonyl)phenylamino)-[1,4′-bipiperidin]-2-one] | 16.2 | 3.4 |
| CC(O)c1cnc(N2CCC(N3CCC[C@H](Nc4cc(F)c(S(C)(=O)=O)cc4F)C3=O)CC2)nc1 (stereo partly drawn) [Example 64, (3S)-3-(2,5-difluoro-4-(methylsulfonyl)phenylamino)-1′-(5-(1-hydroxyethyl)pyrimidin-2-yl)-[1,4′-bipiperidin]-2-one] | 7.4 | 2.0 |
| CS(=O)(=O)c1cc(F)c(N[C@H]2CCCN(C3CCN(c4cnc(Cl)cn4)CC3)C2=O)c(F)c1 [Example 65, (S)-1′-(5-chloropyrazin-2-yl)-3-(2,6-difluoro-4-(methylsulfonyl)phenylamino)-[1,4′-bipiperidin]-2-one] | 21.0 | 3.4 |
| CCc1cnc(N2CCC(N3CCC(Oc4ccc(-n5cnnn5)nc4)C3=O)CC2)nc1 (centres unmarked) [Example 66, 3-(6-(1H-tetrazol-1-yl)pyridin-3-yloxy)-1-(1-(5-ethylpyrimidin-2-yl)piperidin-4-yl)pyrrolidin-2-one] | 4.9 | 1.6 |
| O=C1C(Oc2ccc(-n3cnnn3)nc2)CCN1C1CCN(c2cnc(Cl)cn2)CC1 (centres unmarked) [Example 67, 3-(6-(1H-tetrazol-1-yl)pyridin-3-yloxy)-1-(1-(5-chloropyrazin-2-yl)piperidin-4-yl)pyrrolidin-2-one] | 15.6 | 2.9 |
| CCc1cnc(N2CCC(N3CCC(Oc4ccc(-c5nnn(C)n5)cc4)C3=O)CC2)nc1 (centres unmarked) [Example 68, 1-(1-(5-ethylpyrimidin-2-yl)piperidin-4-yl)-3-(4-(2-methyl-2H-tetrazol-5-yl)phenoxy)pyrrolidin-2-one] | 8.8 | 1.9 |
| CS(=O)(=O)c1ccc(O[C@H]2CCN(C3CCN(c4cnc(Cl)cn4)CC3)C2=O)cn1 [Example 69, (S)-1-(1-(5-chloropyrazin-2-yl)piperidin-4-yl)-3-(6-(methylsulfonyl)pyridin-3-yloxy)pyrrolidin-2-one] | 21.3 | 3.2 |
| CCc1cnc(N2CCC(N3CC[C@H](Oc4ccc(-n5nnnc5C)cc4)C3=O)CC2)nc1 [Example 70, (S)-1-(1-(5-ethylpyrimidin-2-yl)piperidin-4-yl)-3-(4-(5-methyl-1H-tetrazol-1-yl)phenoxy)pyrrolidin-2-one] | 6.1 | 1.8 |
| Cc1nnc(-c2ccc(O[C@H]3CCN(C4CCN(c5cnc(Cl)cn5)CC4)C3=O)c(F)c2)o1 [Example 71, (S)-1-(1-(5-chloropyrazin-2-yl)piperidin-4-yl)-3-(2-fluoro-4-(5-methyl-1,3,4-oxadiazol-2-yl)phenoxy)pyrrolidin-2-one] | 17.6 | 5.6 |
| Cc1nnc(-c2ccc(O[C@H]3CCN(C4CCN(c5ncc(Cl)cn5)CC4)C3=O)c(F)c2)o1 [Example 72, (S)-1-(1-(5-chloropyrimidin-2-yl)piperidin-4-yl)-3-(2-fluoro-4-(5-methyl-1,3,4-oxadiazol-2-yl)Phenoxy)pyrrolidin-2-one] | 7.5 | 2.8 |
| CCc1cnc(N2CCC(N3CCC[C@H](Nc4cc5c(cc4F)S(=O)(=O)CC5)C3=O)CC2)nc1 [Example 73, (S)-1′-(5-ethylpyrimidin-2-yl)-3-((6-fluoro-1,1-dioxido-2,3-dihydrobenzo[b]thiophen-5-yl)amino)-[1,4′-bipiperidin]-2-one] | 14.4 | 3.0 |
| O=C1[C@@H](Oc2ccc3[nH]ncc3c2)CCN1C1CCN(c2cnc(Cl)cn2)CC1 [Example 74, (S)-3-(1H-indazol-5-yloxy)-1-(1-(5-chloropyrazin-2-yl)piperidin-4-yl)pyrrolidin-2-one] | 8.6 | 2.2 |
| O=C1[C@@H](Nc2ncc(C(F)(F)F)cc2Cl)CCCN1C1CCN(c2cnc(Cl)cn2)CC1 [Example 75, (S)-3-(3-chloro-5-(trifluoromethyl)pyridin-2-ylamino)-1′-(5-chloropyrazin-2-yl)-[1,4′-bipiperidin]-2-one] | 9.1 | 2.5 |
| CCc1cnc(N2CCC(N3CCC[C@H](Nc4ncc(C(F)(F)F)cc4Cl)C3=O)CC2)nc1 [Example 76, (S)-3-(3-chloro-5-(trifluoromethyl)pyridin-2-ylamino)-1′-(5-ethylpyrimidin-2-yl)-[1,4′-bipiperidin]-2-one] | 5.9 | 1.9 |
| CCc1cnc(N2CCC(N3CCCC(Nc4ccc(S(C)(=O)=O)cc4F)C3=O)CC2)c(C)c1 (centres unmarked) [Example 77, 1′-(5-ethyl-3-methylpyridin-2-yl)-3-(2-fluoro-4-(methylsulfonyl)phenylamino)-[1,4′-bipiperidin]-2-one] | 21.3 | 2.5 |
| CCc1cnc(N2CCC(N3CCC[C@H](N(C)c4cc(F)c(S(C)(=O)=O)cc4F)C3=O)CC2)nc1 [Example 78, (S)-3-((2,5-difluoro-4-(methylsulfonyl)phenyl)(methyl)amino)-1′-(5-ethylpyrimidin-2-yl)-[1,4′-bipiperidin]-2-one] | 13.6 | 3.4 |
| CCc1cnc(N2CCC(N3CCCC[C@H](Nc4ccc(S(C)(=O)=O)cc4F)C3=O)CC2)nc1.Cl [Example 79] | 18.0 | 3.8 |
| CS(=O)(=O)c1ccc(N[C@H]2CCCCN(C3CCN(c4cnc(Cl)cn4)CC3)C2=O)c(F)c1.Cl [Example 80, (S)-1-(1-(5-chloropyrazin-2-yl)piperidin-4-yl)-3-(2-fluoro-4-(methylsulfonyl)phenylamino)azepan-2-one hydrochloride] | 18.3 | 3.7 |
| CS(=O)(=O)c1cc(F)c(N[C@H]2CCCCN(C3CCN(c4cnc(Cl)cn4)CC3)C2=O)cc1F.Cl [Example 81, (S)-1-(1-(5-chloropyrazin-2-yl)piperidin-4-yl)-3-(2,5-difluoro-4-(methylsulfonyl)phenylamino)azepan-2-one hydrochloride] | 22.7 | 5.0 |
| CCc1cnc(N2CCC(N3CCCC[C@H](Nc4cc(F)c(S(C)(=O)=O)cc4F)C3=O)CC2)nc1.Cl [Example 82, (S)-3-(2,5-difluoro-4-(methylsulfonyl)phenylamino)-1-(1-(5-ethylpyrimidin-2-yl)piperidin-4-yl)azepan-2-one hydrochloride] | 18.5 | 4.0 |
| CS(=O)(=O)c1cc(F)c(N[C@H]2CCCCN(C3CCN(c4cnccn4)CC3)C2=O)cc1F.Cl [Example 83, (S)-3-(2,5-difluoro-4-(methylsulfonyl)phenylamino)-1-(1-(pyrazin-2-yl)piperidin-4-yl)azepan-2-one hydrochloride] | 13.0 | 2.9 |
| CS(=O)(=O)c1cc(F)c(N[C@H]2CCCCN(C3CCN(c4cncc(Cl)n4)CC3)C2=O)cc1F.Cl [Example 84, (S)-1-(1-(6-chloropyrazin-2-yl)piperidin-4-yl)-3-(2,5-difluoro-4-(methylsulfonyl)phenylamino)azepan-2-one hydrochloride] | 6.3 | 1.8 |
